Experimental data taken from patent US20240300943A1, “NOVEL SALTS OF HETEROCYCLIC COMPOUND AS PROTEIN KINASE INHIBITOR AND USES THEREOF” (HK INNO.N CORPORATION, priority 2021, published 2024).

Experiments:
JAK1 = experiment: Human whole blood assay, JAK1; type: cell-based; conditions: cytokine-induced STAT phosphorylation
Method: A stock solution of Compound 1 obtained according to Preparation Example 1 was diluted with distilled water and then serially diluted at ⅕ with 4% DMSO. 5 μL of test material was added to 100 μL of whole blood collected using a 1.7 mL eppendorf tube, mixed, and incubated at 37° C. for 45 minutes.
IL-6 (10 μg/ml) was diluted with 0.1% BSA/DW to reach 1 μg/mL each. 5 μL of IL-6 was added (at a final concentration of 50 ng/mL) and incubated at 37° C. for 15 minutes. At this time, 5 μL of DPBS was added as a non-stimulated control group. Lyse/fix buffer 5× was diluted 1× in distilled water and used. […]
For double staining of CD4 and pSTATI, anti-[…] and anti-pSTATI were mixed in a staining buffer and added to each of the samples. […] On the next day, the results were analyzed using FACSCanto II. […]
The numerical values analyzed by FlowJo were calculated to obtain IC50 values using GraphPad Prism 5 software (product name).
No treatment response (NTR) was set as a reference, and the degree of the phosphorylation of STAT induced by cytokines was converted into a relative ratio (% control group). A dose-response plot was obtained for each concentration-dependent activity of each test material using GraphPad Prism (version 5.0) and ICso values were calculated.

[1] = system: DNCB-induced animal model (NC/Nga mice); experiment: DNCB-induced atopic dermatitis model (topical); type: in vivo; conditions: for Reduction of scratching behavior compared to the control group (vehicle): week 4, FIG. 12
Method: NC/Nga mice were anesthetized with isoflurane and the dorsal hair (from the bottom of the ear to the top of the tail) was then removed. The NC/Nga mice were left for 24 hours for recovery of fine wounds on the shaved skin.
After healing, 200 μL of 1%1-chloro-2,4-dinitrobenzene (DNCB) in acetone/olive oil (3:1) was topically applied to the dorsal skin (primary skin application). Secondary skin application was performed after three days for sensitization.
Seven days after the primary skin application, 150 μL of 0.4% DNCB in acetone/olive oil (3:1) was topically applied, and applied to the dorsal skin three times a week for five weeks.
The phosphate of Compound 1 (hereinafter, referred to as a phosphate compound) obtained according to Example 3 was used as a test material, and the test material was treated before applying DNCB from two weeks after the primary skin application. The dosage of the test material was calculated based on a body weight of mice measured on the day of administration, and the test material was topically applied to atopic skin using a glass stick (a total of 56 times twice a day for 28 days, six hours at a treatment interval). 0.5% methylcellulose (0.5% MC) was administered to the control group (vehicle).
Week 6 after the primary skin application, the test animals were autopsied. Specifically, the test animals were anesthetized using isoflurane, and as much blood as possible was drawn from the caudal vena cava with a syringe and stored in a 5 mL vacuum tube containing a blood clot activator. The blood was allowed to stand at room temperature for 15-20 minutes for coagulation and then centrifuged at 3000 rpm for 10 minutes.
Atopic dermatitis scores were rated as none (0), mild (1), moderate (2), and severe (3) for each of the five symptoms (erythema, dryness, skin edema and hematoma, erosion, and keratinization). The total dermatitis score representing clinical severity was defined as the sum of all scores (maximum score: 15). The evaluation was conducted twice a week by the same researcher at the same time.
To evaluate a scratching behavior at week 4, mice were placed in cages and the frequency of scratching was evaluated for 30 minutes.
Quantitative analysis was performed using a serum IgE and histamine with ELISA kit.
After measuring a weight of the spleen and mouse, a spleen-to-body weight ratio (relative organ weight) was calculated.
TARC, TSLP, IL-4, IL-1B and TNF-α were quantified using skin tissue through qRT-PCR.
On the day of autopsy, the skin in 10% neutral buffered formalin solution was analyzed by staining with H & E and toluidine blue.

C[C@@H]1CN(C(=O)CC#N)CC=C1c1cc(NC(=O)C2CC2)nc2[nH]ccc12 [Compound 1, (S)—N-(4-(1-(2-cyanoacetyl)-3-methyl-1,2,3,6-tetrahydropyridin-4-yl)-1H-pyrrolo[2,3-b]pyridin-6-yl)cyclopropanecarboxamide]
IC50 (JAK1): 70 nM

C[C@@H]1CN(C(=O)CC#N)CC=C1c1cc(NC(=O)C2CC2)nc2[nH]ccc12 [Example 3, (S)—N-(4-(1-(2-cyanoacetyl)-3-methyl-1,2,3,6-tetrahydropyridin-4-yl)-1H-pyrrolo[2,3-b]pyridin-6-yl)cyclopropanecarboxamide]
Reduction of scratching behavior compared to the control group (vehicle) ([1]; 3% phosphate compound): at least 50% | Skin severity score (clinical atopic dermatitis score) ([1]; FIG. 11): significantly reduced | Spleen-to-body weight ratio ([1]; FIG. 15): decreased | Histological properties of atopic dermatitis (skin staining) ([1]; FIG. 16): changes the histological properties of atopic dermatitis | Atopic dermatitis-related cytokines of plasma and skin ([1]; FIGS. 13 and 14): reduced | Reduction of scratching behavior compared to the control group (vehicle) ([1]; dosed groups): at least 30% | Symptoms of atopic dermatitis ([1]; twice a day for 28 days, FIGS. 11 to 16): ameliorates symptoms of atopic dermatitis
